Experimental data reported in patent US6124269A, “2-Halo-6-O-substituted ketolide derivatives” (priority 1998, dated 2000).
Values after ≈ are worked out from the molar mass of the structure shown.

Columns and labels:
Format in all cases: cell-based
Candida albicans CCH 442 = assay: In vitro agar dilution MIC, organism code TT; details: Table 1B, unit assumed
Method in brief: (§1)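 Agar dilution in Brain Heart Infusion agar, twelve successive compound dilutions; inocula at 1:100 dilution (1:10 for slow-growing strains such as Streptococcus) applied by replicator. Incubation 35-37° C. for 20 to 24 hours; MIC is lowest concentration giving no growth, slight haze or sparse colonies versus growth control.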

[1] = tested on: Nocardia asteroides ATCC 9970; assay: In vitro agar dilution MIC, organism code VV; details: Table 1B, in µg/mL (unit assumed)
Method in brief: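 BHI agar dilution, twelve plates; inoculum 1:100, 1:10 for Streptococcus/Micrococcus; Steers replicator; 35-37° C, 20-24 h. Endpoint: no growth/slight haze/sparse colonies vs. no-drug control. Erythromycin A reference plate.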

[2] = tested on: Streptococcus pneumoniae 5979; assay: In vitro agar dilution MIC, organism code ZZ; details: Table 1B, unit assumed
Method in brief: as §1

[3] = tested on: Staphylococcus epidermidis 3519; assay: In vitro agar dilution MIC, organism code HH; details: Table 1B, in µg/mL (unit assumed)
Method in brief: as §1

[4] = tested on: Staphylococcus aureus A-5278; assay: In vitro agar dilution MIC, organism code CC; details: Table 1B, unit assumed
Method in brief: as §1

Escherichia coli JUHL = assay: In vitro agar dilution MIC, organism code QQ; details: Table 1B, in µg/mL (unit assumed)
Method in brief: as §1

[5] = tested on: Staphylococcus aureus CMX 553; assay: In vitro agar dilution MIC, organism code FF; details: Table 1B, unit assumed
Method in brief: as §1

[6] = tested on: Mycobacterium smegmatis ATCC 114; assay: In vitro agar dilution MIC, organism code UU; details: Table 1B, in µg/mL (unit assumed)
Method in brief: as §1

[7] = tested on: Micrococcus luteus ATCC 9341; assay: In vitro agar dilution MIC, organism code OO; details: Table 1B, unit assumed
Method in brief: as §1

[8] = tested on: Streptococcus pneumoniae ATCC 6303; assay: In vitro agar dilution MIC, organism code XX; details: Table 1B, unit assumed
Method in brief: as §1

[9] = tested on: Staphylococcus aureus NCTC10649M; assay: In vitro agar dilution MIC, organism code EE; details: Table 1B, unit assumed
Method in brief: as §1

[10] = tested on: Enterococcus faecium ATCC 8043; assay: In vitro agar dilution MIC, organism code II; details: Table 1B, unit assumed
Method in brief: as §1

[11] = tested on: Streptococcus bovis A-5169; assay: In vitro agar dilution MIC, organism code JJ; details: Table 1B, unit assumed
Method in brief: as §1

[12] = tested on: Streptococcus pneumoniae GYR 1171; assay: In vitro agar dilution MIC, organism code YY; details: Table 1B, unit assumed
Method in brief: as §1

[13] = tested on: Staphylococcus aureus ATCC 6538P; assay: In vitro agar dilution MIC, organism code AA; details: Table 1B, unit assumed
Method in brief: as §1

[14] = tested on: Streptococcus agalactiae CMX 508; assay: In vitro agar dilution MIC, organism code KK; details: Table 1B, unit assumed
Method in brief: as §1

[15] = tested on: Staphylococcus aureus A5177; assay: In vitro agar dilution MIC, organism code BB; details: Table 1B, in µg/mL (unit assumed)
Method in brief: as §1

[16] = tested on: Streptococcus pneumoniae 5649; assay: In vitro agar dilution MIC, organism code ZZA; details: Table 1B, unit assumed
Method in brief: as §1

[17] = tested on: Micrococcus luteus ATCC 4698; assay: In vitro agar dilution MIC, organism code PP; details: Table 1B, in µg/mL (unit assumed)
Method in brief: as §1

[18] = tested on: Haemophilis influenzae DILL AMP R; assay: In vitro agar dilution MIC, organism code WW; details: Table 1B, unit assumed
Method in brief: as §1

[19] = tested on: Staphylococcus aureus 1775; assay: In vitro agar dilution MIC, organism code GG; details: Table 1B, unit assumed
Method in brief: as §1

[20] = tested on: Streptococcus pyogenes 930; assay: In vitro agar dilution MIC, organism code MM; details: Table 1B, unit assumed
Method in brief: as §1

[21] = tested on: Streptococcus pyogenes PIU 2548; assay: In vitro agar dilution MIC, organism code NN; details: Table 1B, unit assumed
Method in brief: as §1

[22] = tested on: Staphylococcus aureus CMX 642A; assay: In vitro agar dilution MIC, organism code DD; details: Table 1B, unit assumed
Method in brief: as §1

Escherichia coli DC-2 = assay: In vitro agar dilution MIC, organism code SS; details: Table 1B, unit assumed
Method in brief: as §1

[23] = tested on: Streptococcus pyogenes EES61; assay: In vitro agar dilution MIC, organism code LL; details: Table 1B, unit assumed
Method in brief: as §1

Escherichia coli SS = assay: In vitro agar dilution MIC, organism code RR; details: Table 1B, in µg/mL (unit assumed)
Method in brief: as §1

SMILES | MIC (Candida albicans CCH 442) | MIC [1] | MIC [2] | MIC [3] | MIC [4] | MIC (Escherichia coli JUHL) | MIC [5] | MIC [6] | MIC [7] | MIC [8] | MIC [9] | MIC [10] | MIC [11] | MIC [12] | MIC [13] | MIC [14] | MIC [15] | MIC [16] | MIC [17] | MIC [18] | further results
CC[C@H]1OC(=O)C(C)(F)C(=O)[C@H](C)[C@@H](O[C@@H]2O[C@H](C)C[C@H](N(C)C)[C@H]2O)[C@](C)(OCC#CC(=O)c2cccs2)C[C@@H](C)C(=O)[C@H](C)[C@H]2NC(=O)O[C@@]21C (stereo partly drawn) [Example 24] | > 100 µg/mL | 0.78 | > 64 µg/mL | 1.56 | > 100 µg/mL | 100 | 1.56 µg/mL (≈ 2.04 µM) | 3.1 | 0.2 µg/mL (≈ 0.261 µM) | 0.06 µg/mL (≈ 0.0784 µM) | 1.56 µg/mL (≈ 2.04 µM) | 0.39 µg/mL (≈ 0.51 µM) | 0.2 µg/mL (≈ 0.261 µM) | 0.03 µg/mL (≈ 0.0392 µM) | 1.56 µg/mL (≈ 2.04 µM) | 0.39 µg/mL (≈ 0.51 µM) | 1.56 | 1 µg/mL (≈ 1.31 µM) | 0.78 | 16 µg/mL (≈ 20.9 µM) | MIC [19]: > 100 µg/mL; MIC [20]: 100 µg/mL (≈ 131 µM); MIC [21]: 3.1 µg/mL (≈ 4.05 µM); MIC [22]: 1.56 µg/mL (≈ 2.04 µM); MIC (Escherichia coli DC-2): > 100 µg/mL; MIC [23]: 0.39 µg/mL (≈ 0.51 µM); MIC (Escherichia coli SS): 3.1
CC[C@H]1OC(=O)C(C)(F)C(=O)[C@H](C)[C@@H](O[C@@H]2O[C@H](C)C[C@H](N(C)C)[C@H]2O)[C@](C)(OCC#CC(=O)c2ccc(Cl)nc2)C[C@@H](C)C(=O)[C@H](C)[C@H]2NC(=O)O[C@@]21C (stereo partly drawn) [Example 25] | > 100 µg/mL | 0.2 | 0.06 µg/mL (≈ 0.0755 µM) | 0.39 | > 100 µg/mL | > 100 | 0.39 µg/mL (≈ 0.491 µM) | 0.78 | 0.2 µg/mL (≈ 0.252 µM) | ≤ 0.004 µg/mL | 0.78 µg/mL (≈ 0.982 µM) | 0.2 µg/mL (≈ 0.252 µM) | 0.1 µg/mL (≈ 0.126 µM) | ≤ 0.004 µg/mL | 0.39 µg/mL (≈ 0.491 µM) | 0.1 µg/mL (≈ 0.126 µM) | 0.39 | 0.06 µg/mL (≈ 0.0755 µM) | 0.39 | 2 µg/mL (≈ 2.52 µM) | MIC [19]: > 100 µg/mL; MIC [20]: 6.2 µg/mL (≈ 7.81 µM); MIC [21]: 0.39 µg/mL (≈ 0.491 µM); MIC [22]: 0.39 µg/mL (≈ 0.491 µM); MIC (Escherichia coli DC-2): > 100 µg/mL; MIC [23]: 0.1 µg/mL (≈ 0.126 µM); MIC (Escherichia coli SS): 3.1
CC[C@H]1OC(=O)C(C)(F)C(=O)[C@H](C)[C@@H](O[C@@H]2O[C@H](C)C[C@H](N(C)C)[C@H]2O)[C@](C)(OCC#Cc2cnc3ccccc3c2)C[C@@H](C)C(=O)[C@H](C)[C@H]2NC(=O)O[C@@]21C (stereo partly drawn) [Example 26] | > 100 µg/mL | 0.01 | 16 µg/mL (≈ 20.5 µM) | 0.05 | > 100 µg/mL | 25 | 0.05 µg/mL (≈ 0.0639 µM) | 0.2 | 0.02 µg/mL (≈ 0.0256 µM) | ≤ 0.004 µg/mL | 0.1 µg/mL (≈ 0.128 µM) | 0.02 µg/mL (≈ 0.0256 µM) | 0.01 µg/mL (≈ 0.0128 µM) | ≤ 0.004 µg/mL | 0.05 µg/mL (≈ 0.0639 µM) | 0.02 µg/mL (≈ 0.0256 µM) | 0.05 | 0.25 µg/mL (≈ 0.32 µM) | 0.05 | 2 µg/mL (≈ 2.56 µM) | MIC [19]: > 100 µg/mL; MIC [20]: 0.1 µg/mL (≈ 0.128 µM); MIC [21]: 0.05 µg/mL (≈ 0.0639 µM); MIC [22]: 0.05 µg/mL (≈ 0.0639 µM); MIC (Escherichia coli DC-2): 25 µg/mL (≈ 32 µM); MIC [23]: 0.02 µg/mL (≈ 0.0256 µM); MIC (Escherichia coli SS): 0.2
CC[C@H]1OC(=O)C(C)(F)C(=O)[C@H](C)[C@@H](O[C@@H]2O[C@H](C)C[C@H](N(C)C)[C@H]2O)[C@](C)(OCC#Cc2ccc(-c3cccs3)s2)C[C@@H](C)C(=O)[C@H](C)[C@H]2NC(=O)O[C@@]21C (stereo partly drawn) [Example 28] | > 100 µg/mL | 0.02 | 16 µg/mL (≈ 19.5 µM) | 0.1 | > 100 µg/mL | 100 | 0.1 µg/mL (≈ 0.122 µM) | 0.39 | 0.02 µg/mL (≈ 0.0244 µM) | ≤ 0.004 µg/mL | 0.2 µg/mL (≈ 0.244 µM) | 0.05 µg/mL (≈ 0.061 µM) | 0.01 µg/mL (≈ 0.0122 µM) | ≤ 0.004 µg/mL | 0.05 µg/mL (≈ 0.061 µM) | 0.02 µg/mL (≈ 0.0244 µM) | 0.1 | 0.25 µg/mL (≈ 0.305 µM) | 0.05 | 2 µg/mL (≈ 2.44 µM) | MIC [19]: > 100 µg/mL; MIC [20]: 0.78 µg/mL (≈ 0.952 µM); MIC [21]: 0.2 µg/mL (≈ 0.244 µM); MIC [22]: 0.1 µg/mL (≈ 0.122 µM); MIC (Escherichia coli DC-2): 100 µg/mL (≈ 122 µM); MIC [23]: 0.02 µg/mL (≈ 0.0244 µM); MIC (Escherichia coli SS): 0.78
